According to US20210371459A1, “DIMERIC PEPTIDE INHIBITORS OF APOPTOSIS PROTEINS” (Hepagene Therapeutics (HK) Limited, priority 2017, published 2021):

Tests used:
Conditions in all cases: FP, probe AbuRPFK-5FAM, 60 min at 25° C.
cIAP1-BIR3 = target: T1, cIAP1-BIR3 (Homo sapiens, UniProt Q13490); assay: cIAP1-BIR3 fluorescence polarization binding assay
T1 construct: cIAP1-BIR3; Reaction Biology; APT-11-370; purchased Reaction Biology APT-11-370
Description: (§1) IAPs are one main cause of cancer development and may result from overexpression of anti-apoptotic proteins. This protocol establishes three binding assays for XIAP Bir3 domain, cIAP1 and cIAP2 using FP (Fluorescence polarization) technology. The fluorescence probe used is a synthetic peptide conjugated to 5-carboxyfluorescein (AbuRPFK-5FAM). The fluorescence polarization value (mP) was detected by Envision, which was used to reflect the binding degree of protein and fluorescent marker. Reagents and equipment used in the assay are listed below, followed by the protocol.
(§2) • a) Prepare 100 times of the final cpd concentration in appropriate tube and transfer 5 uL compound (“cpd”) to 45 μL 1× reaction buffer with 10% DMSO. • b) The final reference cpd concentration is 10000, 3333.3, 1111.1, 370.4, 123.4, 41.2, 13.7, 4.57, 1.52, 0.51, 0.17 and 0 nM. So the 100 times of the concentration is 1000, 333.3, 111.1, 37.04, 12.34, 4.12, […], 0.15, 0.05, 0.017 and 0 μM. The final test cpds concentration is 3333.3, 1111.1, 370.4, 123.4, 41.2, 13.7, 4.57, 1.52, 0.51, 0.17, 0.057 and 0 nM. So the 100 times of the concentration is 333.3, 111.1, 37.04, 12.34, 4.12, […], 0.15, 0.05, 0.017, 0.0057 and 0 μM • c) Add 8 μL/well each dose enzyme to 384 well microplate (ProxiPlate-384 F Plus, 6008260) using multichannel pipette, prepared in step 2.1.1.2 • d) Centrifuge at 1000 rpm. • e) Add 2 μL/well cpd to 384 well microplate (ProxiPlate-384 F Plus, 6008260) using multichannel pipette, prepared in step a). • f) Centrifuge at 1000 rpm. RT, 15 min. • g) Start the assay by adding 10 uL/well substrate (prepared in step 2.1.1.3) to the same 384 well microplate using multichannel pipette • h) Centrifuge at 1000 rpm. • i) Cover the assay plate and incubate for 60 min at 25° C. • j) Read on Envision 2104 for mP and plot the IC50s with mP values. • k) Data analysis: IC50s were determined based on a non-linear regression analysis of data collected.

XIAP-BIR3 = target: T2, XIAP-BIR3 (Homo sapiens, UniProt P98170); assay: XIAP-BIR3 fluorescence polarization binding assay
T2 construct: purchased Reaction Biology APT-11-374
T2 sequence (P98170 241-356 limits assumed): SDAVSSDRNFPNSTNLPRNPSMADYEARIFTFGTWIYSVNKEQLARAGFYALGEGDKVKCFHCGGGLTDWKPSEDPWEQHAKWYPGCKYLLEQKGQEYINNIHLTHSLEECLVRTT
Description: as §1, §2

cIAP2-BIR3 = target: T3, cIAP2-BIR3 (Homo sapiens, UniProt Q13489); assay: cIAP2-BIR3 fluorescence polarization binding assay
T3 construct: cIAP2-BIR3; Reaction Biology; APT-11-372; purchased Reaction Biology APT-11-372
T3 sequence (Q13489 238-349 limits assumed): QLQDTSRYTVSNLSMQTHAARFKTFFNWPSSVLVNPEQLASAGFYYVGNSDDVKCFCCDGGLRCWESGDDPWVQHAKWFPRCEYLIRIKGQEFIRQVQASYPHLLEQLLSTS
Description: as §1, §2

T1 sequence (Q13490 253-363 limits assumed): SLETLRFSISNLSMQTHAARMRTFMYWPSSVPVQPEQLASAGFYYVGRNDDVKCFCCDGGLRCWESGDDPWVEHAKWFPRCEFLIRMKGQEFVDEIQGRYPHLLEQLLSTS

IC50 (cIAP1-BIR3)	IC50 (XIAP-BIR3)	IC50 (cIAP2-BIR3)	Compound
0.1 to 10 nM	10 to 100 nM	10 to 100 nM	CN[C@@H](C)C(=O)N[C@H](C(=O)N1C[C@@H](OCCCN2CCN(CCCO[C@H]3C[C@@H](C(=O)N[C@@H]4CCCc5ccccc54)N(C(=O)[C@@H](NC(=O)[C@H](C)NC)C4CCC4)C3)CC2)C[C@H]1C(=O)N[C@@H]1CCCc2ccccc21)C1CCC1 [Compound II-H, (2S,4S)-1-[(2S)-2-Cyclobutyl-2-[(2S)-2-(methylamino)propanamido]acetyl]-4-[3-[4-(3-[[(3S,5S)-1-[(2S)-2-cyclobutyl-2-[(2S)-2-(methylamino)propanamido]acetyl]-5-[[(1R)-1,2,3,4-tetrahydronaphthalen-1-yl]carbamoyl]pyrrolidin-3-yl]oxy]propyl)piperazin-1-yl]propoxy]-N-[(1R)-1,2,3,4-tetrahydronaphthalen-1-yl]pyrrolidine-2-carboxamide]
0.1 to 10 nM	10 to 100 nM	0.1 to 10 nM	CN[C@@H](C)C(=O)N[C@H](C(=O)N1C[C@@H](OCCOCCO[C@H]2C[C@@H](C(=O)N[C@@H]3CCCc4ccccc43)N(C(=O)[C@@H](NC(=O)[C@H](C)NC)C3CCCCC3)C2)C[C@H]1C(=O)N[C@@H]1CCCc2ccccc21)C1CCCCC1 [Compound V, (2S,4S)-1-[(2S)-2-Cyclohexyl-2-[(2S)-2-(methylamino)propanamido]acetyl]-4-[2-(2-[[(3S,5S)-1-[(2S)-2-cyclohexyl-2-[(2S)-2-(methylamino)propanamido]acetyl]-5-[[(1R)-1,2,3,4-tetrahydronaphthalen-1-yl]carbamoyl]pyrrolidin-3-yl]oxy]ethoxy)ethoxy]-N-[(1R)-1,2,3,4-tetrahydronaphthalen-1-yl] pyrrolidine-2-carboxamide]
0.1 to 10 nM	10 to 100 nM	10 to 100 nM	CN[C@@H](C)C(=O)N[C@H](C(=O)N1C[C@@H](OCCC(=O)N2CCN(C(=O)CCO[C@H]3C[C@@H](C(=O)N[C@@H]4CCCc5ccccc54)N(C(=O)[C@@H](NC(=O)[C@H](C)NC)C4CCCCC4)C3)CC2)C[C@H]1C(=O)N[C@@H]1CCCc2ccccc21)C1CCCCC1 [Compound IV, (2S,4S)-1-[(2S)-2-Cyclohexyl-2-[(2S)-2-(methylamino)propanamido]acetyl]-4-{3-[4-(3-{[(3S,5S)-1-[(2S)-2-cyclohexyl-2-[(2S)-2-(methylamino)propanamido]acetyl]-5-{[(1R)-1,2,3,4-tetrahydronaphthalen-1-yl]carbamoyl}pyrrolidin-3-yl]oxy}propanoyl)piperazin-1-yl]-3-oxopropoxy}-N-[(1R)-1,2,3,4-tetrahydronaphthalen-1-yl]pyrrolidine-2-carboxamide]
0.1 to 10 nM	10 to 100 nM	10 to 100 nM	CN[C@@H](C)C(=O)N[C@H](C(=O)N1C[C@@H](OCCC(=O)N2CCN(C(=O)CCO[C@H]3C[C@@H](C(=O)N[C@@H]4CCCc5ccccc54)N(C(=O)[C@@H](NC(=O)[C@H](C)NC)C4CCC4)C3)CC2)C[C@H]1C(=O)N[C@@H]1CCCc2ccccc21)C1CCC1 [Compound IV-G, (2S,4S)-1-[(2S)-2-Cyclobutyl-2-[(2S)-2-(methylamino)propanamido]acetyl]-4-[3-[4-(3-[[(3S,5S)-1-[(2S)-2-cyclobutyl-2-[(2S)-2-(methylamino)propanamido]acetyl]-5-[[(1R)-1,2,3,4-tetrahydronaphthalen-1-yl]carbamoyl]pyrrolidin-3-yl]oxy]propanoyl)piperazin-1-yl]-3-oxopropoxy]-N-[(1R)-1,2,3,4-tetrahydronaphthalen-1-yl]pyrrolidine-2-carboxamide]

More lines, now with the values behind:

Compound	IC50 (cIAP1-BIR3)	IC50 (XIAP-BIR3)	IC50 (cIAP2-BIR3)
CN[C@@H](C)C(=O)N[C@H](C(=O)N1C[C@@H](OCCCN2CCN(CCCO[C@H]3C[C@@H](C(=O)N[C@@H]4CCCc5ccccc54)N(C(=O)[C@@H](NC(=O)[C@H](C)NC)C4CCCCC4)C3)CC2)C[C@H]1C(=O)N[C@@H]1CCCc2ccccc21)C1CCCCC1 [Compound II, (2S,4S)-1-[(2S)-2-Cyclohexyl-2-[(2S)-2-(methylamino)propanamido]acetyl]-4-[3-[4-(3-[[(3S,5S)-1-[(2S)-2-cyclohexyl-2-[(2S)-2-(methylamino)propanamido]acetyl]-5-[[(1R)-1,2,3,4-tetrahydronaphthalen-1-yl]carbamoyl]pyrrolidin-3-yl]oxy]propyl)piperazin-1-yl]propoxy]-N-[(1R)-1,2,3,4-tetrahydronaphthalen-1-yl]pyrrolidine-2-carboxamide]	0.1 to 10 nM	10 to 100 nM	10 to 100 nM
CN[C@@H](C)C(=O)N[C@@H](C)C(=O)N1C[C@@H](OCCCN2CCN(CCCO[C@H]3C[C@@H](C(=O)N[C@@H]4CCCc5ccccc54)N(C(=O)[C@H](C)NC(=O)[C@H](C)NC)C3)CC2)C[C@H]1C(=O)N[C@@H]1CCCc2ccccc21 [Compound II-A, (2S,4S)-1-[(2S)-2-[(2S)-2-(Methylamino)propanamido]propanoyl]-4-{3-[4-(3-{[(3S,5S)-1-[(2S)-2-[(2S)-2-(methylamino)propanamido]propanoyl]-5-{[(1R)-1,2,3,4-tetrahydronaphthalen-1-yl]carbamoyl}pyrrolidin-3-yl]oxy}propyl)piperazin-1-yl]propoxy}-N-[(1R)-1,2,3,4-tetrahydronaphthalen-1-yl]pyrrolidine-2-carboxamide]	0.1 to 10 nM	100 to 1000 nM	10 to 100 nM
CN[C@@H](C)C(=O)N[C@H](C(=O)N1CCC[C@H]1C(=O)N[C@@H]1CCCc2c1cccc2N1CCN(c2cccc3c2CCC[C@H]3NC(=O)[C@@H]2CCCN2C(=O)[C@@H](NC(=O)[C@H](C)NC)C(C)C)CC1)C(C)C [Compound I-C, (S)-1-((S)-3-Methyl-2-((S)-2-(methylamino)propanamido)butanoyl)-N—((R)-5-(4-((R)-5-((S)-1-((S)-3-methyl-2-((S)-2-(methylamino)propanamido)butanoyl)pyrrolidine-2-carboxamido)-5,6,7,8-tetrahydronaphthalen-1-yl)piperazin-1-yl)-1,2,3,4-tetrahydronaphthalen-1-yl)pyrrolidine-2-carboxamide]	0.1 to 10 nM	10 to 100 nM	10 to 100 nM
CN[C@@H](C)C(=O)N[C@H](C(=O)N1CCC[C@H]1C(=O)N[C@@H]1CCCc2c1cccc2N1CCN(c2cccc3c2CCC[C@H]3NC(=O)[C@@H]2CCCN2C(=O)[C@@H](NC(=O)[C@H](C)NC)C2CCCCC2)CC1)C1CCCCC1 [Compound I, (2S)-1-[(2S)-2-Cyclohexyl-2-[(2S)-2-(methylamino)propanamido]acetyl]-N-[(1R)-5-[4-[(5R)-5-[(2S)-1-[(2S)-2-cyclohexyl-2-[(2S)-2-(methylamino)propanamido]acetyl]pyrrolidine-2-amido]-5,6,7,8-tetrahydronaphthalen-1-yl]piperazin-1-yl]-1,2,3,4-tetrahydronaphthalen-1-yl]pyrrolidine-2-carboxamide]	0.1 to 10 nM	10 to 100 nM	10 to 100 nM
CN[C@@H](C)C(=O)N[C@H](C(=O)N1CCC[C@H]1C(=O)N[C@@H]1CCCc2c1cccc2N1CCN(c2cccc3c2CCC[C@H]3NC(=O)[C@@H]2CCCN2C(=O)[C@@H](NC(=O)[C@H](C)NC)C(C)(C)C)CC1)C(C)(C)C [Compound I-A, (2S,2′S,29S,34S)—N, N′-((1R,1′R)-5,5′-(Piperazine-1,4-diyl)bis(1,2,3,4-tetrahydronaphthalene-5,1-diyl))bis(1-((S)-3,3-dimethyl-2-((S)-2-(methylamino)propanamido)butanoyl)pyrrolidine-2-carboxamide)]	0.1 to 10 nM	100 to 1000 nM	10 to 100 nM
